Experiments:
[1] = test system: HIF-1 (HRE-dependent luciferase reporter); experiment: HRE-luciferase assay, screening of HIF-1 inhibitors in HCT116 cells; type: cell-based, human; conditions: Homo sapiens, HCT-116; HCT116 cells stably expressing HRE-dependent luciferase reporter, hypoxic conditions, 12 hours; means of three experiments
Experimental: HCT116 cells stably expressing the HRE-dependent luciferase reporter were treated with the disubstituted adamantyl derivative prepared in the above example under hypoxic conditions for 12 hours before measuring luciferase activity.
(§1) In HCT116 cells treated with disubstituted adamantyl derivatives, luciferase activity was investigated using HRE-luciferase assay. The HRE-luciferase reporter assay was performed as previously described using the luciferase assay system (Promega, Madison, WI, USA) according to the manufacturer's instructions (Naik, R. et al. Synthesis and Structure-Activity Relationship of (E)Phenoxyacrylic Amide Derivatives as Hypoxia-Inducible Factor (HIF) 1α Inhibitors. J. Med. Chem. 55, 10564-1057 (2012)). Luciferase activity was measured using a Victor X light luminescence reader (PerkinElmer, Boston, MA, USA).

HepG2 and A549 cells = experiment: Cell proliferation by live cell imaging system IncuCyte ZOOM; type: cell-based, human; conditions: IncuCyte ZOOM (FIG. 1C)
HIF-1α activity = experiment: HRE-luciferase assay in HepG2 cells; type: cell-based; conditions: Homo sapiens; HepG2 cells (FIG. 2A)
Experimental: as §1, with “the presence of oxygen, when the proline residue of the oxygen-dependent degradation (ODD) domain of HIF-1α is hydroxylated by prolyl hydroxylase (PHD), HIF-1α degradation is promoted by binding to Von Hippel-Lindau syndrome (VHL) associated” for “HCT116 cells treated”, “VCB-Cul2 E3 ligase that induces proteolysis. […] First, HIF-1α” for “disubstituted adamantyl derivatives, luciferase”, “assay in HepG2 cells treated with LW1564 (compound 21-3).” for “assay.”, “la” for “1α”

HIF-1α mRNA = experiment: qPCR of HIF-1α mRNA; type: cell-based, human; conditions: qPCR (FIG. 2C)
From the text: In addition, the amount of HIF-1α mRNA in LW1564-treated cells was investigated by a qPCR method. Total RNA was isolated using TRIzol reagent (Invitrogen), and cDNA was synthesized using TOPscript™ DryMIX (Enzynomics, Seoul, Korea). The HIF1A primer sequences are Fwd 5′-CTGACCCTGCACTCAATCAAG-3′ and Rev 5′-TGGGACTATTAGGCTCAGGTG-3.

Complex II/III = experiment: Mitochondrial respiration assay, complex II/III (succinate); type: cell-based, human; conditions: HepG2 cells (FIG. 4C)
Experimental: (§2) Compounds that suppress mitochondrial respiration promote degradation of HIF-1α by increasing cellular oxygen content. Accordingly, it was investigated whether LW1564 (compound 21-3) affected mitochondrial respiration by measuring the oxygen consumption rate (OCR). Oxygen consumption was measured using an Oxytherm Clark-type electrode system (Hansatech, Norfolk, UK) (Chou, T. C. Theoretical basis, experimental design, and computerized simulation of synergism and antagonism in drug combination studies. Pharmacol. Rev. 58, 621-681 (2006)). HepG2 cells (2×10^7) were cultured with 2 μM LW1564 (compound 21-3) for 6 hours, collected, and then OCR was measured at 37° C. for 5 minutes with a thermoregulated controlled circulating system. For […] studies, digitonin-permeabilised HepG2 cells (2×10^7) were read on a detection device containing 2 ml of respiratory buffer (0.25 M sucrose, 2 mM KH2PO4, 5 mM MgCl2, 1 mM EDTA, 1 mM ADP, 20 mM MOPS, pH 7.4). The following substrates, which provide electrons to the components in the ETC, were then added: 5 mM sodium pyruvate, 5 mM sodium malate, 5 mM sodium succinate, 5 mM L-ascorbic acid and 0.2 mM N,N,N,N-tetra methyl-p-phenylenediamine (TMPD). Complex I, III and IV inhibitors (rotenone, antimycin A and KCN, respectively) were added to a final concentration of 1 μM. […]

Complex IV = experiment: Mitochondrial respiration assay, complex IV (ascorbate/TMPD); type: cell-based, human; conditions: HepG2 cells (FIG. 4D)
Experimental: as §2

lipid synthesis = experiment: Nile red staining of lipid accumulation in HepG2 cells; type: cell-based, human; conditions: 24 hours (FIG. 5B)
Experimental: In order to explore this possibility, the effect of LW1564 (compounds 21-3) on lipid synthesis using Nile red, a fluorescent probe that binds to hydrophobic molecules such as lipid droplets was evaluated. Nile red staining was performed as described in “1. Huang, D. et al. HIF-1-mediated suppression of acyl-CoA dehydrogenases and fatty acid oxidation is critical for cancer progression. Cell Rep. 8, 1930-1942 (2014).” HepG2 cells were treated with LW1564 (compound 21-3) for 24 hours and then stained with 200 nM Nile Red and 1 μM Calcein AM for 10 minutes. Data were collected and analyzed with an IncuCyte ZOOM® system (Essen BioScience). For normalization, cell viability was measured using a cell-permeant fluorescent dye, Calcein AM.

IC50 [1]: 1100 nM | IC50 (HIF-1α activity): 1200 nM
Compound: COc1cc2c(cc1OC)CN(C(=O)C13CC4CC(C1)CC(c1ccc(OCC(=O)N5CCN(Cc6ccc(C(F)(F)F)cc6)CC5)cc1)(C4)C3)CC2 [Compound 21c, 2-(4-(3-(6,7-Dimethoxy-1,2,3,4-tetrahydroisoquinoline-2-carbonyl)adamantan-1-yl)phenoxy)-1-(4-(4-(trifluoromethyl)benzyl)piperazin-1-yl) ethanone]
proliferation inhibition, live cell imaging (HepG2 and A549 cells): induced proliferation inhibition of HepG2 and A549 cells in a dose-dependent manner | amount of HIF-1α mRNA (HIF-1α mRNA): no change in the amount of HIF-1α mRNA | oxygen consumption rate in the presence of succinate (Complex II/III): did not affect the oxygen consumption rate | oxygen consumption rate in the presence of ascorbate/TMPD (Complex IV): did not affect the oxygen consumption rate | lipid accumulation (Nile red) (lipid synthesis): reduced lipid accumulation in a concentration-dependent manner
